Each structure is given as a SMILES string. “And” between values parts separate entries of the source, which are not always exact repeats. Equal values may be shown once. Inconclusive results and toxic doses are left out.

This assay has as its system L1210 leukemia ip in BDF1 mice, survival T/C. The assay can be described thus: NCI In Vivo Anticancer Drug Screen. Data for tumor model L1210 Leukemia (intraperitoneal) in B6D2F1 (BDF1) mice. The following applies: endpoint: mean survival time, higher = longer survival. Put shortly:
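Read-out is survival time, reported as the treated-group measurement over the vehicle-control measurement.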

Where [1] appears, read: dose: 100.0 mg/kg/injection, schedule: Q04DX003 (ip), vehicle: saline with Tween-80.
Where [2] appears, read: dose: 200.0 mg/kg/injection, schedule: Q04DX003 (ip), vehicle: saline with Tween-80.
The mark [3] stands for this setting: dose: 400.0 mg/kg/injection, schedule: Q04DX003 (ip), vehicle: saline with Tween-80.
Where [4] appears, read: dose: 100.0 mg/kg/injection, schedule: Q04DX003 (ip), vehicle: saline.
Where [5] appears, read: dose: 100.0 mg/kg/injection, schedule: Q01DX001 (ip), vehicle: saline.
Setting [6] is: dose: 100.0 mg/kg/injection, schedule: Q01DX009 (ip), vehicle: saline.
Where [7] appears, read: dose: 200.0 mg/kg/injection, schedule: Q01DX001 (ip), vehicle: saline.
[8] abbreviates: dose: 200.0 mg/kg/injection, schedule: Q01DX009 (ip), vehicle: saline.
The mark [9] stands for this setting: dose: 100.0 mg/kg/injection, schedule: Q01DX009 (ip), vehicle: saline with Tween-80.
Setting [10] is: dose: 100.0 mg/kg/injection, schedule: Q01DX001 (ip), vehicle: carboxymethylcellulose (CMC).
Setting [11] is: dose: 200.0 mg/kg/injection, schedule: Q01DX001 (ip), vehicle: carboxymethylcellulose (CMC).
The mark [12] stands for this setting: dose: 400.0 mg/kg/injection, schedule: Q01DX001 (ip), vehicle: carboxymethylcellulose (CMC).
[13] abbreviates: dose: 100.0 mg/kg/injection, schedule: Q01DX009 (ip), vehicle: Klucel (hydroxypropylcellulose) (HPC).
The mark [14] stands for this setting: dose: 200.0 mg/kg/injection, schedule: Q01DX009 (ip), vehicle: Klucel (hydroxypropylcellulose) (HPC).
Setting [15] is: dose: 200.0 mg/kg/injection, schedule: Q01DX009 (ip), vehicle: saline with Tween-80.

`CCCCCCCCCCCCCCCc1cc(O)cc(O)c1`: the T/C runs as follows: (dose: 50.0 mg/kg/injection, schedule: Q01DX001 (ip), vehicle: other) 88 % of control; (dose: 200.0 mg/kg/injection, schedule: Q01DX001 (ip), vehicle: other) 95 % of control; (dose: 400.0 mg/kg/injection, schedule: Q01DX001 (ip), vehicle: other) 93 % of control.

For `O=C1c2ccccc2-c2ccc(-c3ccccc3)c3ccc(CCc4ccccc4)c1c23`, the T/C under setting [1] is 100 % of control, the T/C under setting [2] was 89 % of control and the T/C under setting [3] is 89 % of control.

As for `CCC[CH2][Sn]([I])([CH2]C)[CH2]C`, the T/C (dose: 100.0 mg/kg/injection, schedule: Q04DX002 (ip), vehicle: Klucel (hydroxypropylcellulose) (HPC)) is 90 % of control and the T/C (dose: 400.0 mg/kg/injection, schedule: Q04DX002 (ip), vehicle: Klucel (hydroxypropylcellulose) (HPC)) was 101 % of control.

As for `Cc1nc(N)[nH]c(=O)c1CCC(=O)O`, the T/C is 102 % of control under setting [4] and 107 % of control (dose: 400.0 mg/kg/injection, schedule: Q04DX003 (ip), vehicle: saline).

`NC(=O)c1[nH]cnc1/N=N/N1CCCC1`: the T/C is, setting by setting: (dose: 125.0 mg/kg/injection, schedule: Q01DX Z (ip), vehicle: carboxymethylcellulose (CMC)) 103 % of control; (dose: 375.0 mg/kg/injection, schedule: Q01DX Z (ip), vehicle: carboxymethylcellulose (CMC)) 105 % of control.

As for `COC1CCS(=O)(=O)C1` (stereo not given), the T/C was 95 % of control under setting [5]; 97 % of control under setting [6]; 94 % of control under setting [7]; 98 % of control under setting [8]; 94 % of control (dose: 400.0 mg/kg/injection, schedule: Q01DX001 (ip), vehicle: saline); 100 % of control (dose: 400.0 mg/kg/injection, schedule: Q01DX009 (ip), vehicle: saline).

As for `O=S(=O)(C(Br)CBr)C(Br)CBr` (stereo not given), the T/C is, setting by setting: (dose: 25.0 mg/kg/injection, schedule: Q01DX009 (ip), vehicle: saline with Tween-80) 94 % of control; (dose: 50.0 mg/kg/injection, schedule: Q01DX009 (ip), vehicle: saline with Tween-80) 107 % of control.

On to `COc1ccc(O)c(C=O)c1`, for which the T/C under setting [9] was 108 % of control.

Take `CC(CO)(CO)N=Cc1cc(Cl)ccc1O`: the T/C by setting is: under setting [10], 91 % of control; under setting [11], 96 % of control; under setting [12], 109 % of control.

Regarding `OCc1nccn1Cc1ccccc1`, the T/C reads like this: (dose: 25.0 mg/kg/injection, schedule: Q01DX009 (ip), vehicle: water) 99 % of control; (dose: 50.0 mg/kg/injection, schedule: Q01DX009 (ip), vehicle: water) 100 % of control; under setting [6], 97 % of control; (dose: 100.0 mg/kg/injection, schedule: Q01DX009 (ip), vehicle: water) 100 % of control; under setting [8], 108 % of control; (dose: 200.0 mg/kg/injection, schedule: Q01DX009 (ip), vehicle: water) 106 % of control.

Consider `Cc1c(O)ccc(O)c1C`, for which the T/C is 100 % of control under setting [5] and 95 % of control under setting [7].

Regarding `Cc1ccc(C(=O)OCC(C)C)s1`, the T/C is 98 % of control under setting [10], 101 % of control under setting [11] and 98 % of control under setting [12].

Turning to `CC(C)=NNC(=O)Nc1cccc(C)c1C`, the T/C under setting [13] was 90 % of control and the T/C under setting [14] is 91 % of control.

For the molecule `COC(=O)C1Cc2c([nH]c3ccccc23)CN1` (stereo not given), the T/C is 95 % of control (dose: 9.0 mg/kg/injection, schedule: Q01DX009 (ip), vehicle: saline); 100 % of control (dose: 9.0 mg/kg/injection, schedule: Q04DX003 (ip), vehicle: saline); 101 % of control (dose: 18.0 mg/kg/injection, schedule: Q01DX009 (ip), vehicle: saline); 98 % of control (dose: 18.0 mg/kg/injection, schedule: Q04DX003 (ip), vehicle: saline); 105 % of control (dose: 37.0 mg/kg/injection, schedule: Q01DX009 (ip), vehicle: saline); 93 % of control (dose: 37.0 mg/kg/injection, schedule: Q04DX003 (ip), vehicle: saline).

With `CCOC(=O)C1(C(C)C)OC2(O)CCCCN2C1=O` (stereo not given), the T/C was 106 % of control (dose: 12.5 mg/kg/injection, schedule: Q04DX003 (ip), vehicle: alcohol); 104 % of control (dose: 25.0 mg/kg/injection, schedule: Q04DX003 (ip), vehicle: alcohol); 113 % of control (dose: 50.0 mg/kg/injection, schedule: Q04DX003 (ip), vehicle: alcohol); 101 % of control (dose: 100.0 mg/kg/injection, schedule: Q04DX003 (ip), vehicle: alcohol).

Consider `CCCNC(=O)Nc1ccc(C)cc1C`, for which the T/C is 96 % of control under setting [9]; 97 % of control under setting [1]; 97 % of control under setting [15]; 97 % of control under setting [2]; 100 % of control (dose: 400.0 mg/kg/injection, schedule: Q01DX009 (ip), vehicle: saline with Tween-80); 101 % of control under setting [3].

For `CN(Cc1cnc2nc(N)nc(N)c2n1)c1ccc(C(=O)NC(CCC(=O)O)C(=O)O)c2ccccc12` (stereo not given), the T/C (dose: 2.0 mg/kg/injection, schedule: Q01DX009 (ip), vehicle: saline) was 159 % of control; the T/C (dose: 2.0 mg/kg/injection, schedule: Q04DX003 (ip), vehicle: saline) was 120 % of control; the T/C (dose: 4.0 mg/kg/injection, schedule: Q01DX009 (ip), vehicle: saline) was 152 % of control and 172 % of control; the T/C (dose: 4.0 mg/kg/injection, schedule: Q04DX003 (ip), vehicle: saline) is 122 % of control; the T/C (dose: 8.0 mg/kg/injection, schedule: Q01DX009 (ip), vehicle: saline) is 156 % of control and 160 % of control; the T/C (dose: 8.0 mg/kg/injection, schedule: Q04DX003 (ip), vehicle: saline) is 106 % of control. Further, the T/C is, setting by setting: (dose: 13.0 mg/kg/injection, schedule: Q01DX009 (ip), vehicle: saline) 123 % of control; (dose: 64.0 mg/kg/injection, schedule: Q04DX003 (ip), vehicle: saline) 115 % of control; (dose: 128.0 mg/kg/injection, schedule: Q04DX003 (ip), vehicle: saline) 101 % of control.

For `S=C1NC(c2ccco2)N2C(=S)NC(c3ccco3)N12` (stereo not given), the T/C runs as follows: (dose: 100.0 mg/kg/injection, schedule: Q01DX009 (ip), vehicle: gum acacia) 90 % of control; (dose: 100.0 mg/kg/injection, schedule: Q04DX003 (ip), vehicle: gum acacia) 97 % of control; (dose: 200.0 mg/kg/injection, schedule: Q01DX009 (ip), vehicle: gum acacia) 95 % of control; (dose: 200.0 mg/kg/injection, schedule: Q04DX003 (ip), vehicle: gum acacia) 103 % of control; (dose: 400.0 mg/kg/injection, schedule: Q01DX009 (ip), vehicle: gum acacia) 95 % of control; (dose: 400.0 mg/kg/injection, schedule: Q04DX003 (ip), vehicle: gum acacia) 98 % of control.

For `CCCCP(=O)(CCCC)Oc1ccccc1F`, the T/C was 90 % of control under setting [9] and 86 % of control under setting [15].

With `Cc1ccccc1NC(=O)NCCCl`, the T/C runs as follows: under setting [1], 88 % of control; under setting [2], 88 % of control; under setting [3], 98 % of control.

As to `C/C=C/c1ccc(OCC)c(OC)c1`, the T/C by setting is: under setting [4], 97 % of control; (dose: 200.0 mg/kg/injection, schedule: Q04DX003 (ip), vehicle: saline) 98 % of control.

For `S=C(N/N=C/C=C/c1ccccc1)NC1CC2CC1C1C=CCC21` (stereo not given), the T/C runs as follows: under setting [13], 94 % of control; under setting [14], 117 % of control; (dose: 400.0 mg/kg/injection, schedule: Q01DX009 (ip), vehicle: Klucel (hydroxypropylcellulose) (HPC)) 88 % of control.

As for `O=c1[nH]c(NC2OC(CO)C(O)C2O)nc2c1ncn2C1(CO)CC(O)(CO)O1` (stereo not given), the T/C (dose: 100.0 mg/kg/injection, schedule: Q01DX005 (ip), vehicle: saline) was 93 % of control and the T/C (dose: 200.0 mg/kg/injection, schedule: Q01DX005 (ip), vehicle: saline) was 98 % of control.

The values are drawn from PubChem BioAssay AID248 (DTP/NCI, 2004).
